Laboratory results from patent US6706663B2, “Herbicidal 3-heterocyclic substituted benzisothiazole and benzisoxazole compounds” (Wyeth, priority 2000, dated 2004).

How the values were obtained:
[1] = system: CYPIR (Cyperus iria); assay: Flooded paddy, preemergence weed control; type: in vivo; conditions: rated 3-4 weeks after treatment, 0-9 rating scale
Summary of the method: (§1)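 Silt loam, sowing depth ≤0.5 cm; permanent flood 1.5–3 cm above soil; greenhouse culture after treatment. Readout: 0-9 visual scale (stand, vigor, malformation, size, chlorosis, appearance) vs control.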

[2] = system: ABUTH (Abutilon theophrasti); assay: Postemergence herbicidal evaluation; type: in vivo, Medic.; conditions: postemergence
Summary of the method: (§2)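 Visual 0–9 injury scores versus control plants, covering stand, vigour, malformation, size, chlorosis and general appearance, taken four to five weeks post-spray and averaged over replicate tests. Plants were sprayed at roughly two weeks old and held on greenhouse benches.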

[3] = system: ZEAMX (Corn, Field); assay: Postemergence herbicidal evaluation; type: in vivo, Zea mays, L.; conditions: postemergence
Summary of the method: as §2

[4] = system: AMBEL (Ambrosia artemisifolia); assay: Preemergence herbicidal evaluation; type: in vivo, L.; conditions: preemergence, rated 4-5 weeks after treatment
Summary of the method: (§3)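 Visual 0-9 rating versus untreated control, taken four to five weeks post-treatment, scoring stand, vigor, malformation, size, chlorosis and overall appearance. Compound applied as aqueous acetone spray to freshly seeded soil cups, then kept under standard greenhouse care.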

[5] = system: ORYSAT (Rice, Tebonnet); assay: Flooded paddy, post-transplant rice tolerance; type: in vivo, Oryza sativa, (L.) Tebonnet; conditions: flooded paddy, post-transplant rice, rated 3-4 weeks after treatment, 0-9 rating scale
Summary of the method: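 Visual 0–9 injury rating against a control, covering stand, vigor, malformation, size, chlorosis and overall appearance. Treatment was post-transplant onto flooded containers (water 1.5–3 cm deep, silt loam) holding two ten-day-old cv. Tebonnet seedlings, maintained on greenhouse benches.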

[6] = system: GALAP (Galium aparine); assay: Postemergence herbicidal evaluation; type: in vivo; conditions: postemergence
Summary of the method: as §2

[7] = system: IPOHE (Ipomoea hederacea); assay: Postemergence herbicidal evaluation; type: in vivo, (L.) Jacq.; conditions: postemergence
Summary of the method: as §2

[8] = system: TRZAWR (Wheat, Winter, cv Riband); assay: Postemergence herbicidal evaluation; type: in vivo, Triticum aestivum; conditions: postemergence
Summary of the method: as §2

[9] = system: CASOB (Cassia obtusifolia); assay: Postemergence herbicidal evaluation; type: in vivo, L.; conditions: postemergence
Summary of the method: as §2

[10] = system: CHEAL (Chenopodium album); assay: Postemergence herbicidal evaluation; type: in vivo, L.; conditions: postemergence
Summary of the method: as §2

[11] = system: AMBEL (Ambrosia artemisifolia); assay: Postemergence herbicidal evaluation; type: in vivo, L.; conditions: postemergence
Summary of the method: as §2

[12] = system: IPOHE (Ipomoea hederacea); assay: Preemergence herbicidal evaluation; type: in vivo, (L.) Jacq.; conditions: preemergence, rated 4-5 weeks after treatment
[13] = system: ECHCG (Echinochloa crus-galli); assay: Postemergence herbicidal evaluation; type: in vivo, (L.) Beau; conditions: postemergence
Summary of the method: as §2

[14] = system: GLXMA (Soybean); assay: Preemergence herbicidal evaluation; type: in vivo, Glycine max, (L.) Merr.; conditions: preemergence, rated 4-5 weeks after treatment
[15] = system: ZEAMX (Corn, Field); assay: Preemergence herbicidal evaluation; type: in vivo, Zea mays, L.; conditions: preemergence, rated 4-5 weeks after treatment
[16] = system: ECHORC (Echinochloa oryzoides); assay: Flooded paddy, preemergence weed control; type: in vivo, Echinochloa oryzoides (Ard.) Fritsch.; conditions: rated 3-4 weeks after treatment, 0-9 rating scale
Summary of the method: as §1

[17] = system: ECHCG (Echinochloa crus-galli); assay: Preemergence herbicidal evaluation; type: in vivo, (L.) Beau; conditions: preemergence, rated 4-5 weeks after treatment
Summary of the method: as §3

[18] = system: ORYSAT (Rice, Tebonnet); assay: Postemergence herbicidal evaluation; type: in vivo, Oryza sativa, (L.) Tebonnet; conditions: postemergence
Summary of the method: as §2

[19] = system: GLXMAW (Soybean, Williams); assay: Postemergence herbicidal evaluation; type: in vivo, Glycine max, (L.) Merr. cv Williams; conditions: postemergence
Summary of the method: as §2

[20] = system: ABUTH (Abutilon theophrasti); assay: Preemergence herbicidal evaluation; type: in vivo, Medic.; conditions: preemergence, rated 4-5 weeks after treatment
[21] = system: SAGPY (Sagittaria pygmaea); assay: Flooded paddy, preemergence weed control; type: in vivo, L.; conditions: rated 3-4 weeks after treatment, 0-9 rating scale
Summary of the method: as §1

[22] = system: GALAP (Galium aparine); assay: Preemergence herbicidal evaluation; type: in vivo; conditions: preemergence, rated 4-5 weeks after treatment
Summary of the method: as §3

[23] = system: MOOVA (Monochoria vaginalis); assay: Flooded paddy, preemergence weed control; type: in vivo, Presl.; conditions: rated 3-4 weeks after treatment, 0-9 rating scale
Summary of the method: as §1

For “[2-[5-[3,6-dihydro-3-methyl-2,6-dioxo-4-(trifluoromethyl)-1(2H)-pyrimidinyl]-1,2-benzisothiazol-3-1]-1,3-dioxolan-4-yl]methyl thiocyanate [Compound 89]”, the CYPIR herbicidal rating ([1]; rate 0.0320 kg/ha) was 0.0, the CYPIR herbicidal rating ([1]; rate 0.1250 kg/ha) was 8.0 and the ABUTH herbicidal rating ([2]; rate 0.0080 kg/ha) was 8.0. It also gave an ABUTH herbicidal rating ([2]; rate 0.0320 kg/ha) of 9.0, an ABUTH herbicidal rating ([2]; rate 0.0620 kg/ha) of 9.0 and an ABUTH herbicidal rating ([2]; rate 0.1250 kg/ha) of 9.0. It also gave a ZEAMX herbicidal rating ([3]; rate 0.0080 kg/ha) of 3.0, a ZEAMX herbicidal rating ([3]; rate 0.0320 kg/ha) of 3.5 and a ZEAMX herbicidal rating ([3]; rate 0.0620 kg/ha) of 3.5. For the same substance, the ZEAMX herbicidal rating ([3]; rate 0.1250 kg/ha) was 3.5, the “Preemergence herbicidal rating AMBEL” value ([4]; rate 0.0620 kg/ha) was 4.0 and the “Preemergence herbicidal rating AMBEL” value ([4]; rate 0.1250 kg/ha) was 9.0. For the same substance, the “Preemergence herbicidal rating AMBEL” value ([4]; rate 0.2500 kg/ha) was 9.0, the “ORYSAT herbicidal rating (transplanted rice tolerance)” value ([5]; rate 0.0320 kg/ha) was 0.0 and the “ORYSAT herbicidal rating (transplanted rice tolerance)” value ([5]; rate 0.1250 kg/ha) was 6.0. For the same substance, the GALAP herbicidal rating ([6]; rate 0.0080 kg/ha) was 2.0, the GALAP herbicidal rating ([6]; rate 0.0320 kg/ha) was 3.0 and the GALAP herbicidal rating ([6]; rate 0.0620 kg/ha) was 7.0. It also gave a GALAP herbicidal rating ([6]; rate 0.1250 kg/ha) of 9.0, an IPOHE herbicidal rating ([7]; rate 0.0080 kg/ha) of 7.0 and an IPOHE herbicidal rating ([7]; rate 0.0320 kg/ha) of 9.0. It also gave an IPOHE herbicidal rating ([7]; rate 0.0620 kg/ha) of 9.0, an IPOHE herbicidal rating ([7]; rate 0.1250 kg/ha) of 9.0 and a TRZAWR herbicidal rating ([8]; rate 0.0080 kg/ha) of 1.5. The TRZAWR herbicidal rating ([8]; rate 0.0320 kg/ha) was 3.0, the TRZAWR herbicidal rating ([8]; rate 0.0620 kg/ha) was 3.0 and the TRZAWR herbicidal rating ([8]; rate 0.1250 kg/ha) was 4.0. It also gave a CASOB herbicidal rating ([9]; rate 0.0080 kg/ha) of 9.0, a CASOB herbicidal rating ([9]; rate 0.0320 kg/ha) of 9.0 and a CASOB herbicidal rating ([9]; rate 0.0620 kg/ha) of 9.0. It also gave a CASOB herbicidal rating ([9]; rate 0.1250 kg/ha) of 9.0, a CHEAL herbicidal rating ([10]; rate 0.0080 kg/ha) of 8.0 and a CHEAL herbicidal rating ([10]; rate 0.0320 kg/ha) of 9.0. The CHEAL herbicidal rating ([10]; rate 0.0620 kg/ha) was 9.0, the CHEAL herbicidal rating ([10]; rate 0.1250 kg/ha) was 9.0 and the AMBEL herbicidal rating ([11]; rate 0.0080 kg/ha) was 7.0. For the same substance, the AMBEL herbicidal rating ([11]; rate 0.0320 kg/ha) was 9.0, the AMBEL herbicidal rating ([11]; rate 0.0620 kg/ha) was 9.0 and the AMBEL herbicidal rating ([11]; rate 0.1250 kg/ha) was 9.0. For the same substance, the “Preemergence herbicidal rating IPOHE” value ([12]; rate 0.0620 kg/ha) was 7.0, the “Preemergence herbicidal rating IPOHE” value ([12]; rate 0.1250 kg/ha) was 8.0 and the “Preemergence herbicidal rating IPOHE” value ([12]; rate 0.2500 kg/ha) was 9.0. The ECHCG herbicidal rating ([13]; rate 0.0080 kg/ha) was 0.0, the ECHCG herbicidal rating ([13]; rate 0.0320 kg/ha) was 0.0 and the ECHCG herbicidal rating ([13]; rate 0.0620 kg/ha) was 3.0. For the same substance, the ECHCG herbicidal rating ([13]; rate 0.1250 kg/ha) was 4.0, the “Preemergence herbicidal rating GLXMA” value ([14]; rate 0.0620 kg/ha) was 3.0 and the “Preemergence herbicidal rating GLXMA” value ([14]; rate 0.1250 kg/ha) was 6.0. For the same substance, the “Preemergence herbicidal rating GLXMA” value ([14]; rate 0.2500 kg/ha) was 9.0, the “Preemergence herbicidal rating ZEAMX” value ([15]; rate 0.0620 kg/ha) was 0.0 and the “Preemergence herbicidal rating ZEAMX” value ([15]; rate 0.1250 kg/ha) was 3.0. For the same substance, the “Preemergence herbicidal rating ZEAMX” value ([15]; rate 0.2500 kg/ha) was 4.0, the ECHORC herbicidal rating ([16]; rate 0.0320 kg/ha) was 3.0 and the ECHORC herbicidal rating ([16]; rate 0.1250 kg/ha) was 5.0. The “Preemergence herbicidal rating ECHCG” value ([17]; rate 0.0620 kg/ha) was 0.0, the “Preemergence herbicidal rating ECHCG” value ([17]; rate 0.1250 kg/ha) was 3.0 and the “Preemergence herbicidal rating ECHCG” value ([17]; rate 0.2500 kg/ha) was 7.0. It also gave an ORYSAT herbicidal rating ([18]; rate 0.0080 kg/ha) of 1.5, an ORYSAT herbicidal rating ([18]; rate 0.0320 kg/ha) of 3.0 and an ORYSAT herbicidal rating ([18]; rate 0.0620 kg/ha) of 3.0. The ORYSAT herbicidal rating ([18]; rate 0.1250 kg/ha) was 4.0, the GLXMAW herbicidal rating ([19]; rate 0.0080 kg/ha) was 7.0 and the GLXMAW herbicidal rating ([19]; rate 0.0320 kg/ha) was 7.5. For the same substance, the GLXMAW herbicidal rating ([19]; rate 0.0620 kg/ha) was 8.0, the GLXMAW herbicidal rating ([19]; rate 0.1250 kg/ha) was 9.0 and the “Preemergence herbicidal rating ABUTH” value ([20]; rate 0.0620 kg/ha) was 9.0. The “Preemergence herbicidal rating ABUTH” value ([20]; rate 0.1250 kg/ha) was 9.0, the “Preemergence herbicidal rating ABUTH” value ([20]; rate 0.2500 kg/ha) was 9.0 and the SAGPY herbicidal rating ([21]; rate 0.0320 kg/ha) was 0.0. For the same substance, the SAGPY herbicidal rating ([21]; rate 0.1250 kg/ha) was 9.0, the “Preemergence herbicidal rating GALAP” value ([22]; rate 0.0620 kg/ha) was 3.0 and the “Preemergence herbicidal rating GALAP” value ([22]; rate 0.1250 kg/ha) was 6.0. For the same substance, the “Preemergence herbicidal rating GALAP” value ([22]; rate 0.2500 kg/ha) was 7.0, the MOOVA herbicidal rating ([23]; rate 0.0320 kg/ha) was 0.0 and the MOOVA herbicidal rating ([23]; rate 0.1250 kg/ha) was 8.0.
